Read-outs that look alike come from different tables or passages of the source.
What was measured:
[1] = system: monocytic cell line THP-1; settings: cited from earlier work
keratinocytes = settings: cited from earlier work
Full-length human MNK1 = target: T1, Full-length human MNK1 (Homo sapiens, UniProt Q9BUB5, T385D); assay: MNK1 biochemical IC50 assay (Caliper Mobility Shift Assay); settings: read-out: P(IC50) MNK1 (converted)
T1 construct: GST (N); purchased Carna Biosciences 02-145; host or cells: baculovirus expression system

Full-length human MNK2 = target: T2, Full-length human MNK2 (Homo sapiens, UniProt Q9HBH9, T379D); assay: MNK2 biochemical IC50 assay (Caliper Mobility Shift Assay)
T2 construct: GST (N); purchased Carna Biosciences 02-146; host or cells: baculovirus expression system

[2] = system: phosphorylation of eIF4E at ser209 in MV4.11 cell line; assay: MNK cellular activity phospho-eIF4E detection assay (Alphascreen Surefire); type: cell-based; settings: Homo sapiens
Procedure, shortened: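 AlphaScreen SureFire sandwich-immunoassay readout of phospho-eIF4E Ser209 in lysed MV4.11 cells; acceptor then donor beads, each 1.5 hr at room temperature. Signal normalised to untreated DMSO-only controls; duplicate curves, values averaged over at least 2 independent experiments.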

[3] = system: eIF4E phosphorylation in normal mouse tissues and xenografted tumors; settings: after oral administration; cited from earlier work
HCT116 xenograft = HCT116 xenograft models; cited from earlier work
[4] = system: B16 melanoma lung metastases; settings: cited from earlier work
[5] = read-out: P(IC50) MNK2 (converted)
[6] = MV4.11 cell line, phospho-eIF4E (ser209) Alphascreen Surefire, read-out: P(IC50) elF4E (converted)

T1 sequence (Q9BUB5 1-424 isoform Q9BUB5-2 T344D): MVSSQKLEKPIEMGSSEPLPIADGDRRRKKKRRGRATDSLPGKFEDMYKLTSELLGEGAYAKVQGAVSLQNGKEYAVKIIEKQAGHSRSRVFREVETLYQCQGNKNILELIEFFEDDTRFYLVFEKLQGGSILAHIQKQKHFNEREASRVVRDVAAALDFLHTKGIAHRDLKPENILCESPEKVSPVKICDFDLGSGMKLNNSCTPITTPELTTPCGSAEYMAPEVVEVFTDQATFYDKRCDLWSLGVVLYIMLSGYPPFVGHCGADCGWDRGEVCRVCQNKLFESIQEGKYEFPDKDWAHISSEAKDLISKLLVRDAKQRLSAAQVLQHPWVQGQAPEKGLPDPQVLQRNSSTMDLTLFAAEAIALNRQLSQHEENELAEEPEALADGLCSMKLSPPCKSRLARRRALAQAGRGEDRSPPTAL
T2 sequence (Q9HBH9 whole entry T379D): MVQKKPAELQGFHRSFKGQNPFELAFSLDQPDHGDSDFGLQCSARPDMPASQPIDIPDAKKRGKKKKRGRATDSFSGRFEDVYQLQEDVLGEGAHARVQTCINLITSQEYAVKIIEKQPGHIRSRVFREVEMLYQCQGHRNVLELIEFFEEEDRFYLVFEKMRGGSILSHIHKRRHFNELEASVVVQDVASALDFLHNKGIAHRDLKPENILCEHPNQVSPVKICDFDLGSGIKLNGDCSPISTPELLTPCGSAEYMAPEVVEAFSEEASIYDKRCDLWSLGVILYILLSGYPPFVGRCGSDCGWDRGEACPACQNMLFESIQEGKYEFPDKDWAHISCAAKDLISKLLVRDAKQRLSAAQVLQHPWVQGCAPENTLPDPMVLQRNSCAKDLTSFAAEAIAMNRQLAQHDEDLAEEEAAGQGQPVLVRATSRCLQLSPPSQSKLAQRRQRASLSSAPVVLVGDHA

Nc1ncnc2n[nH]c(Nc3ccc(F)cc3)c12 [CGP57380]
block of release of IL-1β and IL-8 induced by Shiga toxin [1]: 73-96% | TNF-production (keratinocytes): reduced TNF-production | expression of IL-1β and IL-6 (keratinocytes): decreased expression

CN(C)CCC1CN(c2ncnc3sc(C(=O)NC4CCOCC4)nc23)c2ccc(F)cc21 (stereo not drawn) [Example 148, 7-[3-[2-(dimethyl-amino)ethyl]-5-fluoro-indolin-1-yl]-N-tetrahydro-pyran-4-yl-thiazolo[5,4-d]pyrimidine-2-carboxamide]
IC50 (Full-length human MNK1): 50.1 nM | IC50 (Full-length human MNK2; [5]): 63.1 nM | IC50 [2, 6]: 63.1 nM

O=C(NC1CCOCC1)c1nc2c(N3CC(CCN4CCCC4)c4cc(F)ccc43)ncnc2s1 (stereo not drawn) [Example 149, 7-[5-fluoro-3-(2-pyrrolidin-1-ylethyl)indolin-1-yl]-N-tetrahydropyran-4-yl-thiazolo[5,4-d]pyrimidine-2-carboxamide]
IC50 (Full-length human MNK1): 31.6 nM | IC50 (Full-length human MNK2; [5]): 50.1 nM | IC50 [2, 6]: 63.1 nM

CN1CCN(CCC2CN(c3ncnc4sc(C(=O)NC5CCOCC5)nc34)c3ccc(F)cc32)CC1 (stereo not drawn) [Example 150, 7-[5-fluoro-3-[2-(4-methylpiperazin-1-yl)ethyl]indolin-1-yl]-N-tetrahydropyran-4-yl-thiazolo[5,4-d]pyrimidine-2-carboxamide]
IC50 (Full-length human MNK1): 63.1 nM | IC50 (Full-length human MNK2; [5]): 63.1 nM | IC50 [2, 6]: 25.1 nM

O=C(NC1CCOCC1)c1nc2c(N3CC(CCN4CCOCC4)c4cc(F)ccc43)ncnc2s1 (stereo not drawn) [Example 151, 7-[5-fluoro-3-(2-morpholinoethyl)indolin-1-yl]-N-tetrahydropyran-4-yl-thiazolo[5,4-d]pyrimidine-2-carboxamide]
IC50 (Full-length human MNK1): 100 nM | IC50 (Full-length human MNK2; [5]): 100 nM | IC50 [2, 6]: 31.6 nM

CN(C)CCC1CN(c2ncnc3sc(C(=O)NC4CCOCC4)nc23)c2ccccc21 (stereo not drawn) [Example 152, 7-[3-[2-(dimethylamino)ethyl]-indolin-1-yl]-N-tetrahydropyran-4-yl-thiazolo[5,4-d]pyrimidine-2-carboxamide]
IC50 (Full-length human MNK1): 100 nM | IC50 (Full-length human MNK2; [5]): 79.4 nM | IC50 [2, 6]: 50.1 nM

O=C(NC1CCOCC1)c1nc2c(N3CC(CCN4CCCC4)c4ccccc43)ncnc2s1 (stereo not drawn) [Example 153, 7-[3-(2-pyrrolidin-1-ylethyl)indolin-1-yl]-N-tetrahydropyran-4-yl-thiazolo[5,4-d]pyrimidine-2-carboxamide]
IC50 (Full-length human MNK1): 50.1 nM | IC50 (Full-length human MNK2; [5]): 50.1 nM | IC50 [2, 6]: 100 nM

O=C(NC1CCOCC1)c1nc2c(N3CC(CCN4CCOCC4)c4ccccc43)ncnc2s1 (stereo not drawn) [Example 154, 7-[3-(2-morpholinoethyl)indolin-1-yl]-N-tetrahydropyran-4-yl-thiazolo[5,4-d]pyrimidine-2-carboxamide]
IC50 (Full-length human MNK1): 79.4 nM | IC50 (Full-length human MNK2; [5]): 79.4 nM | IC50 [2, 6]: 100 nM

CN1CCN(CCC2CN(c3ncnc4sc(C(=O)NC5CCOCC5)nc34)c3ccccc32)CC1 (stereo not drawn) [Example 155, 7-[3-[2-(4-methylpiperazin-1-yl)ethyl]indolin-1-yl]-N-tetrahydropyran-4-yl-thiazolo[5,4-d]pyrimidine-2-carboxamide]
IC50 (Full-length human MNK1): 126 nM | IC50 (Full-length human MNK2; [5]): 79.4 nM | IC50 [2, 6]: 50.1 nM

CNC(=O)c1nc2c(N3CC(C)c4ccccc43)ncnc2s1 (stereo not drawn) [Example 156, N-methyl-7-(3-methylindolin-1-yl)thiazolo[5,4-d]pyrimidine-2-carboxamide]
IC50 (Full-length human MNK1): 10 nM | IC50 (Full-length human MNK2; [5]): 7.94 nM | IC50 [2, 6]: 5.01 nM

CNC(=O)c1nc2c(N3CC(CCO)c4ccccc43)ncnc2s1 (stereo not drawn) [Example 157]
IC50 (Full-length human MNK1): 31.6 nM | IC50 (Full-length human MNK2; [5]): 20 nM | IC50 [2, 6]: 10 nM

CNC(=O)c1nc2c(N3CCc4cc(C(F)(F)F)ccc43)ncnc2s1 [Example 158]
IC50 (Full-length human MNK1): 316 nM | IC50 (Full-length human MNK2; [5]): 126 nM | IC50 [2, 6]: 501 nM

CNCCCNC(=O)c1nc2c(N3CC(C)(C)c4ccccc43)ncnc2s1 [Example 159]
IC50 (Full-length human MNK1): 5.01 nM | IC50 (Full-length human MNK2; [5]): 3.16 nM | IC50 [2, 6]: 5.01 nM

CC1(C)CN(c2ncnc3sc(C(=O)NCCCN4CCCC4)nc23)c2ccccc21 [Example 160]
IC50 (Full-length human MNK1): 6.31 nM | IC50 (Full-length human MNK2; [5]): 6.31 nM | IC50 [2, 6]: 7.94 nM

CC1(C)CN(c2ncnc3sc(C(=O)NCC4CCNCC4)nc23)c2ccccc21 [Example 161]
IC50 (Full-length human MNK1): 3.16 nM | IC50 (Full-length human MNK2): 2.51 nM | IC50 ([2]; MV4-11, read-out: P(IC50) elF4E): 3.16 nM

CC1(C)CN(c2ncnc3sc(C(=O)NC4CCNCC4)nc23)c2ccccc21 [Example 162]
IC50 (Full-length human MNK1): 6.31 nM | IC50 (Full-length human MNK2; [5]): 5.01 nM | IC50 [2, 6]: 7.94 nM

CC1(C)CN(c2ncnc3sc(C(=O)NCCCO)nc23)c2ccccc21 [Example 163]
IC50 (Full-length human MNK1): 10 nM | IC50 (Full-length human MNK2; [5]): 3.98 nM | IC50 [2, 6]: 5.01 nM

NCCC1CN(c2ncnc3sc(C(=O)NC4CC4)nc23)c2ccccc21 (stereo not drawn) [Example 164, 7-(3-(2-Aminoethyl)indolin-1-yl)-N-cyclo-propylthiazolo[5,4-d]pyrimidine-2-carboxamide]
IC50 (Full-length human MNK1): 5.01 nM | IC50 (Full-length human MNK2; [5]): 5.01 nM | IC50 [2, 6]: 5.01 nM

CC(C)CCNC(=O)c1nc2c(N3CC(CCN)c4ccccc43)ncnc2s1 (stereo not drawn) [Example 165, 7-[3-(2-aminoethyl)indolin-1-yl]-N-isopentyl-thiazolo[5,4-d]pyrimidine-2-carboxamide]
IC50 (Full-length human MNK1): 10 nM | IC50 (Full-length human MNK2; [5]): 10 nM | IC50 [2, 6]: 15.8 nM

COCCCNC(=O)c1nc2c(N3CC(CCN)c4ccccc43)ncnc2s1 (stereo not drawn) [Example 166, 7-[3-(2-amino-ethyl)indolin-1-yl]-N-(3-methoxypropyl) thiazolo[5,4-d]pyrimidine-2-carboxamide]
IC50 (Full-length human MNK1): 5.01 nM | IC50 (Full-length human MNK2; [5]): 5.01 nM | IC50 [2, 6]: 3.98 nM

NCCC1CN(c2ncnc3sc(C(=O)NCCC(F)(F)F)nc23)c2ccccc21 (stereo not drawn) [Example 167, 7-[3-(2-aminoethyl)indolin-1-yl]-N-(3,3,3-trifluoropropyl)thiazolo [5,4-d]pyrimidine-2-carboxamide]
IC50 (Full-length human MNK1): 7.94 nM | IC50 (Full-length human MNK2; [5]): 5.01 nM | IC50 [2, 6]: 15.8 nM

O=C(NCC1CCNCC1)c1nc2c(N3CCc4cc(Br)ccc43)ncnc2s1 [Example 169, 7-(5-Bromoindolin-1-yl)-N-(4-piperidylmethyl)thiazolo[5,4-d]pyrimidine-2-carboxamide]
IC50 (Full-length human MNK1): 7.94 nM | IC50 (Full-length human MNK2; [5]): 7.94 nM | IC50 [2, 6]: 31.6 nM

Cc1ccc2c(c1)CCN2c1ncnc2sc(C(=O)NCC3CCNCC3)nc12 [Example 170, 7-(5-Methylindolin-1-yl)-N-(4-piperidylmethyl)thiazolo[5,4-d]pyrimidine-2-carboxamide]
IC50 (Full-length human MNK1): 63.1 nM | IC50 (Full-length human MNK2; [5]): 25.1 nM | IC50 [2, 6]: 79.4 nM

Fc1ccc2c(c1)CCN2c1ncnc2scnc12 [Example 171, 7-(5-Fluoroindolin-1-yl)thiazolo[5,4-d]pyrimidine]
IC50 (Full-length human MNK1): 79.4 nM | IC50 (Full-length human MNK2; [5]): 63.1 nM | IC50 [2, 6]: 251 nM

CC(=O)C1=C(O)C=C2Oc3c(C(N)=O)c(O)cc(O)c3[C@]2(C)C1=O [cercosporamide]
time to effective block of eIF4E phosphorylation [3]: ≤ 30 min | tumor growth (HCT116 xenograft): reducing tumor growth | outgrowth of lung metastases [4]: suppressing the outgrowth

Reference: patent US10669284B2, “Fused thiazolopyrimidine derivatives as MNKS inhibitors” (LIFEARC, priority 2015, dated 2020)
